Results on three compounds are retold here after US4027039A (priority 1975, dated 1977).

Data set [1] has as its system Influenza, Ann Arbor virus. The experiment in a line: Influenza Ann Arbor in mice, oral; schedule by table; late read day 5 (Tables 15, 25, 29, 30), 6 (18, 20, 22, 23, 26, 27, 28, 54), 7 (14, 19, 21, 24, 53, 56), 8 (16, 17, 51), 9 (11, 55). The class given is in vivo, mouse.
In another data set the test system is Influenza PR 8 virus. In words: Influenza PR 8 in mice, oral; schedule by table; late read day 6 (Table 37), 7 (33, 36), 8 (32, 35, 47), 10 (38); control fraction 18/20 (Table 32), 19/20 (Table 35), else 100%. It counts as in vivo, mouse. As to conditions: of 41 tests.
The test system of data set [2] is Influenza B Massachusetts virus. In words: Influenza B Mass. in mice, oral; late read day 5 (Table 39), 7 (Table 40), 11 (Tables 61, 65); control fraction 16/20 (Table 61), else 100%. It counts as in vivo, mouse. On the procedure:
A portion of a commercially available sample of amantadine was recrystallized from isopropanol. The activity of the material against Influenza B Mass. was tested for the sample as obtained, the recrystallized portion, and the mother liquor obtained from recrystallizing the portion.

Data set [3] shares this test system. As to conditions: larger doses and different dose schedules, literature; cited from earlier work.
In the next data set the test system is viral infections. The experiment in a line: Antiviral screening in animals, general statements. As to conditions: mouse, in vivo.
In another data set the test system is cells. The experiment in a line: Plaque reduction and cytotoxicity in cells. The class given is cell-based. The source says:
It is well known in virology that cells injured due to toxic substances will not support the growth of viruses.

A further data set concerns polio and Vaccinia virus. The following applies: cytopathic effect; cited from earlier work. On the technique in general: Protection from cytopathic effect is a common read-out in antiviral testing.
Data set [4] deals with infectious canine hepatitis. The following applies: 50 mg/kg; cited from earlier work.

Read-outs that look alike come from different tables or passages of the source.

As for `NC12CC3CC(CC(C3)C1)C2` [Commercial amantadine, amantadine, reference compound], in [1] (of 18 tests), the occasions with survivors stood at 5. Besides, in the data set with Influenza PR 8 virus, the “instances of increased geometric mean survival time” value is listed as 11. Besides, the “statistically significant number of survivors in one single instance” value in the data set on Influenza PR 8 virus was 3. Further, the “No. animals surviving after 11 days” value in data set [2] (total dose 60 ng) was 3; in data set [2] (total dose 600 ng), 3; in data set [2] (total dose 6 μg), 7; in [2] (total dose 60 μg), 3; in data set [2] (total dose 600 μg) it was 5; in [2] (total dose 6 mg), 4. Further, the Survivors in data set [2] (total dose 600 ng) is 3; in data set [2] (total dose 6 μg), 5; in data set [2] (total dose 60 μg) it was 2; in data set [2] (total dose 600 μg), 5; in [2] (total dose 6 mg), 2. For the same compound, the “effect against Influenza B Massachusetts” value in data set [3] is listed as “ineffective”. Moreover, in the data set on viral infections, the activity in words result is “inactive against all of the other viruses in the test system”.

Take `NN.O=S(=O)(O)O` [Hydrazine Sulfate, hydrazine sulfate]: the “toxic effects on the cells” value in the data set with cells (10 to 100 mg/ml) is given as “toxic effects on the cells were clearly evident”. Also, the “antiviral activity, plaque reduction” value in the data set on cells (below the level of toxicity) is on record as “no antiviral activity was demonstrated”. In addition, the “No. animals surviving after 6-9 days” value in the data set on Herpes virus (total dose 5 μg) is reported as 3; in the data set with Herpes virus (total dose .0005 μg), 3; in the data set with Herpes virus (total dose .005 μg), 4; in the data set with Herpes virus (total dose .05 μg), 1; in the data set with Herpes virus (total dose .5 μg), 3. Further, the “No. animals surviving when 100% (or given fraction) of controls are dead” value with Herpes virus (total dose .0005 μg) is 3; in the data set on Herpes virus (total dose .005 μg), 4; with Herpes virus (total dose .05 μg), 1. For the same compound, the Survivors in the data set with Herpes virus (total dose .0005 μg) came to 3; in the data set with Herpes virus (total dose .005 μg), 4; in the data set with Herpes virus (total dose .05 μg) it was 0; in the data set with Herpes virus (total dose .5 μg) it was 1. Further, in the data set on polio and Vaccinia virus, the “concentrations with antiviral activity” value is 8 to 66 µg/mL.

In the case of `O=C(CCNNC(=O)c1ccncc1)NCc1ccccc1` [Nialamide, nialamide, reference compound], the Survivors was 1 in data set [1] (total dose 400 pg); 1 in data set [1] (total dose 4 ng); 0 in [1] (total dose 40 ng); 0 in data set [1] (total dose 400 ng); 0 in [1] (total dose 4 μg); 2 in data set [1] (total dose 400 μg). The compound also came in with a Survivors in data set [1] (total dose 4 mg) of 1. The treated animals survived in data set [4] was 15 of 16.
